Laboratory results: patent publication US11077052B1, “Selected multi-phase treatment for coronavirus respiratory infections” (priority 2020, dated 2021)

Experiments:
Assay type in all cases: in vivo, human
SARS-CoV-2 [1] = assay: Nasal irrigation with the Example 1 composition in people during the COVID-19 pandemic, judged by symptoms; details: added to the Example 1 composition
SARS-CoV-2 [2] = assay: Inhalation of the smelling salt by patients during the COVID-19 pandemic; details: liquid CBD added
Experimental: In another formula, in addition to the herbal infused alcohols and concentrated herbal extracts, liquid CBD was also added. […] Apparently, CBD has synergistic effect with the probiotic produced volatile therapeutic compounds. Towards the end of preparation, the multiple strain probiotics along with their bio-active peptides and volatile therapeutic growth end products were add to the formula. The above prepared formulas were placed in a plastic or glass container with a tight closure or in a cartridge with screw type closure. Prior to inhalation, the cap is removed and, using one nostril at a time, it is inhaled deeply to reach the bottom of each and every alveoli of the lung. Conversely, the composition can also be applied using a standard nebulizer with proper liquefaction of the ingredients using a suitable solvent such as water.
The preparation was tried on patients of all age groups and genders ranging from 5 years to 75 years. They were asked to inhale once in the morning and once in the evening if they are at home or office. If they have to go to public places or a crowded place, they were asked to inhale before and after visiting the place. […]
In addition to the ingredients listed in Table 3, further testing evaluated the addition of a minimal amount of ammonium carbonate. In another composition, sodium hypochlorite has been replaced by a minimal quantity of liquid chloroform. […]

SARS-CoV-2 [3] = assay: Oral probiotics liposome in test subjects and COVID-19 patients; details: acute cases of COVID-19
Description: Recommended daily dosages for the above prepared liquid antioxidant liposome are one dose of 1 ounce or two doses of one-half ounce each. This preparation was given to several test subjects of all ages who were monitored for coronavirus infection over a period of 5.5 months during the coronavirus pandemic period (February through middle of August 2020). […] In addition, the above preparation was given to a patient who had been infected with COVID-19. This patient recovered quickly, within one to two weeks.
The liposome also was evaluated with variations of ingredients to identify which appeared to provide the better effectiveness. The standard for comparison had the liposome prepared with, herbal extracts, CBD, ascorbic acid, sodium bicarbonate, and sodium ascorbate. However, the probiotics were not included. A first test version had the liposome prepared with ascorbic acid and herbal extracts only, without sodium ascorbate, sodium bicarbonate, CBD, and probiotics. A second test version had the liposome prepared with concentrated herbal extracts of clove, turmeric, and basil in combination with ascorbic acid and sodium ascorbate along with multiple probiotics strain, but without inclusion of their all other immunomodulins and growth end products. […]

C=C(C)[C@@H]1CCC(C)=C[C@H]1c1c(O)cc(CCCCC)cc1O [CBD, Cannabidiol]
effect of inclusion in the nasal irrigation formulation (SARS-CoV-2 [1]): significantly improved the nasal clearance
effect of addition on efficacy of the inhaling smelling salt (SARS-CoV-2 [2]): significantly improved the efficacy
effect of CBD in the liposome on recovery (SARS-CoV-2 [3]): significantly improved the recovery
